Measurements from the CheMixHub viscosity set.
± gives the uncertainty stated by the source.

Test: xn = mol fraction of the nth substance listed

BrC(Br)Br + C=Cc1ccccc1
viscosity [mPa·s], 101.33 kPa
Conditions	x2 = 0.1005	x2 = 0.2006	x2 = 0.2981	x2 = 0.3985	x2 = 0.506	x2 = 0.6032	x2 = 0.7008	x2 = 0.7712	x2 = 0.8948
298.15 K	1.834 ± 0.022	1.697 ± 0.021	1.562 ± 0.019	1.426 ± 0.017	1.284 ± 0.016	1.163 ± 0.014	1.054 ± 0.013	0.9849 ± 0.012	0.8704 ± 0.011
303.15 K	1.714 ± 0.021	1.586 ± 0.019	1.462 ± 0.018	1.332 ± 0.016	1.198 ± 0.015	1.084 ± 0.013	0.9817 ± 0.012	0.9179 ± 0.012	0.8129 ± 0.01
308.15 K	1.603 ± 0.019	1.481 ± 0.018	1.361 ± 0.017	1.24 ± 0.015	1.117 ± 0.014	1.01 ± 0.013	0.9176 ± 0.012	0.8595 ± 0.011	0.762 ± 0.0099

CCCCCCCCO + CC1COC(=O)O1
298.15 K, 101 kPa
Conditions	viscosity [mPa·s]
x2 = 0.0305	5.992 ± 0.034
x2 = 0.0991	5.607 ± 0.033
x2 = 0.1708	5.253 ± 0.031
x2 = 0.2441	4.915 ± 0.029
x2 = 0.3107	4.627 ± 0.028
x2 = 0.4055	4.245 ± 0.026
x2 = 0.4882	3.938 ± 0.024
x2 = 0.5632	3.679 ± 0.022
x2 = 0.6277	3.469 ± 0.021
x2 = 0.7091	3.222 ± 0.02
x2 = 0.7824	3.015 ± 0.018
x2 = 0.8415	2.857 ± 0.018
x2 = 0.9046	2.698 ± 0.017
x2 = 0.971	2.54 ± 0.016

CC(=O)c1ccc(Cl)cc1 + CC#N
308.15 K, 101 kPa
Conditions	viscosity [mPa·s]
x1 = 0.0513	0.3576 ± 0.014
x1 = 0.092	0.4065 ± 0.015
x1 = 0.1488	0.479 ± 0.017
x1 = 0.2128	0.5704 ± 0.02
x1 = 0.2863	0.6742 ± 0.023
x1 = 0.3792	0.8301 ± 0.027
x1 = 0.4876	1.039 ± 0.033
x1 = 0.6196	1.31 ± 0.041
x1 = 0.7847	1.716 ± 0.053
x1 = 0.865	1.96 ± 0.06
x1 = 0.9536	2.224 ± 0.067

CCCCCCCCO + CC#N
viscosity [mPa·s], 101 kPa
Conditions	298.15 K	303.15 K	308.15 K
x2 = 0.1277	5.028 ± 0.42	4.029 ± 0.34	3.493 ± 0.3
x2 = 0.2608	3.533 ± 0.3	3.09 ± 0.27	2.688 ± 0.23
x2 = 0.3381	2.848 ± 0.25	2.53 ± 0.22	2.203 ± 0.2
x2 = 0.4447	2.086 ± 0.19	1.862 ± 0.17	1.638 ± 0.15
x2 = 0.5793	1.427 ± 0.13	1.282 ± 0.12	1.151 ± 0.11
x2 = 0.68	1.028 ± 0.098	0.927 ± 0.09	0.84 ± 0.082
x2 = 0.7638	0.77 ± 0.077	0.701 ± 0.071	0.647 ± 0.066
x2 = 0.8283	0.695 ± 0.07	0.562 ± 0.059	0.523 ± 0.056
x2 = 0.8825	0.502 ± 0.054	0.472 ± 0.052	0.446 ± 0.049
x2 = 0.9273	0.435 ± 0.048	0.414 ± 0.047	0.391 ± 0.045
x2 = 0.967	0.39 ± 0.045	0.364 ± 0.043	0.346 ± 0.041

C=Cc1ccccc1 + CC(=O)N(C)C
viscosity [mPa·s], 101.33 kPa
Conditions	x1 = 0.109	x1 = 0.1994	x1 = 0.2958	x1 = 0.4002	x1 = 0.5004	x1 = 0.6012	x1 = 0.7027	x1 = 0.8005	x1 = 0.9015
298.15 K	0.938 ± 0.007	0.936 ± 0.007	0.937 ± 0.007	0.929 ± 0.007	0.921 ± 0.006	0.903 ± 0.006	0.881 ± 0.006	0.851 ± 0.006	0.808 ± 0.005
303.15 K	0.874 ± 0.007	0.873 ± 0.007	0.872 ± 0.006	0.863 ± 0.006	0.857 ± 0.006	0.841 ± 0.006	0.821 ± 0.006	0.795 ± 0.005	0.753 ± 0.005
308.15 K	0.817 ± 0.006	0.818 ± 0.006	0.815 ± 0.006	0.807 ± 0.006	0.8 ± 0.006	0.785 ± 0.006	0.766 ± 0.005	0.742 ± 0.005	0.7 ± 0.005

CC(C)(C)N + CC(=O)OCCC(C)C
303.15 K, 101 kPa
Conditions	viscosity [mPa·s]
x1 = 0.1524	0.6892 ± 0.0057
x1 = 0.239	0.6687 ± 0.0055
x1 = 0.3353	0.6526 ± 0.0054
x1 = 0.4584	0.6341 ± 0.0053
x1 = 0.5807	0.5993 ± 0.005
x1 = 0.6423	0.5804 ± 0.0049
x1 = 0.7298	0.5464 ± 0.0046
x1 = 0.8649	0.4955 ± 0.0043

BrC(Br)Br + CC(C)=O
298.15 K, 101 kPa
Conditions	viscosity [mPa·s]
x1 = 0.0969	0.407 ± 0.011
x1 = 0.2014	0.529 ± 0.014
x1 = 0.332	0.696 ± 0.018
x1 = 0.428	0.847 ± 0.022
x1 = 0.4952	0.954 ± 0.025
x1 = 0.5974	1.131 ± 0.03
x1 = 0.6766	1.268 ± 0.033
x1 = 0.7997	1.503 ± 0.04
x1 = 0.9166	1.73 ± 0.05

BrC(Br)Br + CC(C)CCO
viscosity [mPa·s], 101.33 kPa
Conditions	x1 = 0.099	x1 = 0.203	x1 = 0.299	x1 = 0.422	x1 = 0.498	x1 = 0.599	x1 = 0.702	x1 = 0.803	x1 = 0.9
298.15 K	3.419 ± 0.042	3.063 ± 0.037	2.77 ± 0.034	2.415 ± 0.03	2.265 ± 0.028	2.111 ± 0.026	1.957 ± 0.025	1.888 ± 0.024	1.873 ± 0.024
303.15 K	2.937 ± 0.036	2.643 ± 0.033	2.384 ± 0.03	2.145 ± 0.027	2.025 ± 0.025	1.909 ± 0.024	1.795 ± 0.023	1.739 ± 0.022	1.737 ± 0.022
308.15 K	2.527 ± 0.031	2.306 ± 0.029	2.111 ± 0.026	1.905 ± 0.024	1.815 ± 0.023	1.729 ± 0.022	1.647 ± 0.021	1.61 ± 0.021	1.605 ± 0.02

BrC(Br)Br + CC(C)CO
viscosity [mPa·s], 101.3 kPa
Conditions	x1 = 0.099	x1 = 0.197	x1 = 0.3	x1 = 0.395	x1 = 0.498	x1 = 0.597	x1 = 0.701	x1 = 0.798	x1 = 0.901
298.15 K	2.98 ± 0.037	2.604 ± 0.032	2.336 ± 0.029	2.134 ± 0.027	2.017 ± 0.025	1.905 ± 0.024	1.849 ± 0.023	1.815 ± 0.023	1.823 ± 0.023
303.15 K	2.544 ± 0.031	2.272 ± 0.028	2.045 ± 0.026	1.901 ± 0.024	1.808 ± 0.023	1.732 ± 0.022	1.693 ± 0.021	1.679 ± 0.021	1.699 ± 0.022
308.15 K	2.193 ± 0.027	2.011 ± 0.025	1.803 ± 0.023	1.687 ± 0.021	1.633 ± 0.021	1.579 ± 0.02	1.559 ± 0.02	1.558 ± 0.02	1.591 ± 0.02

BrC(Br)Br + CCC(C)=O
viscosity [mPa·s]
Conditions	x1 = 0.1474	x1 = 0.1586	x1 = 0.3005	x1 = 0.3052	x1 = 0.5009	x1 = 0.5019	x1 = 0.6499	x1 = 0.6501	x1 = 0.8432	x1 = 0.8502
298 K, 101.3 kPa	–	0.583 ± 0.008	–	0.768 ± 0.01	1.072 ± 0.014	–	–	1.318 ± 0.017	1.626 ± 0.021	–
318 K, 101.33 kPa	0.4678 ± 0.039	–	0.6228 ± 0.039	–	–	0.8523 ± 0.039	1.038 ± 0.039	–	–	1.298 ± 0.04

CCCCCCCCO + CCC(C)=O
viscosity [mPa·s], 100 kPa
Conditions	x2 = 0.0822	x2 = 0.1611	x2 = 0.2403	x2 = 0.3498	x2 = 0.4409	x2 = 0.5588	x2 = 0.6462	x2 = 0.7398	x2 = 0.8503	x2 = 0.9398
293.15 K	7.1 ± 0.7	5.43 ± 0.55	4.3 ± 0.4	3.18 ± 0.32	2.46 ± 0.25	1.7 ± 0.17	1.26 ± 0.13	0.96 ± 0.1	0.68 ± 0.07	0.49 ± 0.05
303.15 K	4.93 ± 0.49	3.97 ± 0.4	3.09 ± 0.31	2.32 ± 0.23	1.7 ± 0.17	1.03 ± 0.1	0.75 ± 0.08	0.62 ± 0.06	0.49 ± 0.05	0.42 ± 0.04
313.15 K	3.59 ± 0.36	2.87 ± 0.29	2.28 ± 0.23	1.69 ± 0.17	1.32 ± 0.13	0.98 ± 0.1	0.78 ± 0.08	0.62 ± 0.06	0.49 ± 0.05	0.39 ± 0.04
323.15 K	2.74 ± 0.28	2.22 ± 0.22	1.82 ± 0.18	1.38 ± 0.14	1.1 ± 0.11	0.83 ± 0.08	0.67 ± 0.07	0.54 ± 0.05	0.43 ± 0.04	0.35 ± 0.04
